Patent US12668586B2, “AhR inhibitor, use thereof, and preparation method therefor” (CHONGQING PHARSCIN INNOBIO CO., LTD., priority 2021, dated 2026)

Biological target: T1, AhR (Homo sapiens, UniProt P35869)
T1 sequence (P35869 11-848): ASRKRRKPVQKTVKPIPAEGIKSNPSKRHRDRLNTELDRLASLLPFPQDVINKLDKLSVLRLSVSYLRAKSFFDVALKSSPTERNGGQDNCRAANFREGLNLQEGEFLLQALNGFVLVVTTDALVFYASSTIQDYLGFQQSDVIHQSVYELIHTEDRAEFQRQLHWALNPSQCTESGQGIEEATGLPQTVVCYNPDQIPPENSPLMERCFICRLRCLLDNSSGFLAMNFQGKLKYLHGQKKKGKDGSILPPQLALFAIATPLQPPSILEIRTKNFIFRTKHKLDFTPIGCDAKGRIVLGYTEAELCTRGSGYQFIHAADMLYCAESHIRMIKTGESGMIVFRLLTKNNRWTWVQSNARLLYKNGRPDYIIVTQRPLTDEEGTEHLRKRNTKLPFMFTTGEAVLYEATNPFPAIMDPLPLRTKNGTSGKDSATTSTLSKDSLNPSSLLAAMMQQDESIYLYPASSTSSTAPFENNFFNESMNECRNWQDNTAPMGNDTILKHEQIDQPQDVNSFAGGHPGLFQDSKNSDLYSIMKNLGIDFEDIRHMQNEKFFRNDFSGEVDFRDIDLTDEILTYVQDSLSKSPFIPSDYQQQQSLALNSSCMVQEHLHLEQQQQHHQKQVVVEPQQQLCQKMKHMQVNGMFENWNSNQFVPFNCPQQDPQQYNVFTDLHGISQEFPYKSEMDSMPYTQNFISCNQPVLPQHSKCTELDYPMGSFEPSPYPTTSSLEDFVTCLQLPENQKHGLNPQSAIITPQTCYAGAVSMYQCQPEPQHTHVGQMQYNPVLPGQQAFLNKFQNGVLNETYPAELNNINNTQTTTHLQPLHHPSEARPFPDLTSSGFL
Test: AhR inhibitory activity experiment, in vitro assay 1: HepG2-Lucia AhR cells, Lucia luciferase reporter (QUANTI-Luc)
Type: cell-based
Details: 24 hours incubation at 37° C., Lucia luciferase in supernatant, read-out: AhR inhibitory activity C50
Protocol: Test Example: AhR Inhibitory Activity Experiment
When QUANTI-Luc™ (InvivoGen Company) testing reagents are used, AhR gene signaling pathways can be studied by monitoring the activity of Lucia luciferase in the cell culture supernatant.
In Vitro Assay 1: Assay on Inhibitory Activity in Human Cell Lines
Adherent cell layers of HepG2-Lucia™ AhR cells in a logarithmic growth phase were washed with PBS, and then the cells were isolated with trypsin. The isolated cells were centrifuged at 1000 RPM for 5 minutes, the supernatant was removed, and the cells were re-suspended with a test medium by 1.25×10^5 cells/ml.
20,000 cells were added to each well of a 96-well plate, and the 96-well plate was placed in a CO2 incubator to incubate the cells at 37° C. for 24 hours in the absence (negative control) or presence of test compounds with gradient increasing concentrations (typical dilutions: 169 pmol/L, 0.5 nmol/L, 1.5 nmol/L; 4.6 nmol/L, 13.7 nmol/L, 41 nmol/L, 123 nmol/L, 370 nmol/L, 1.1 μmol/L, 3.3 μmol/L and 10 μmol/L, in triplicate).
The 20 μl/well cell supernatant was transferred to a black 96-well plate, a 50 μL/well QUANTI-Luc™ solution was added, and the activity of Lucia luciferase was measured on a multifunctional ELISA reader Spark 10 M (Tecan Company) through a QUANTI-Luc™ luciferase assay system.
Experimental results are shown in Table 1, wherein for IC50 values, “++++” represents IC50<0.05 μM; “+++” represents IC50 between 0.05 μM and 0.2 μM; “++” represents IC50 between 0.2 μM and 1.0 μM; and “+” represents IC50>1.0 μM.

| SMILES | IC50 [nM] |
| --- | --- |
| O=C(N[C@H]1CCc2ncccc21)c1cc(-c2ccc(Cl)cc2)nc(-c2ccnc(F)c2)n1 [Compound 62, (S)-6-(4-chlorophenyl)-N-((S)-6,7-dihydro-5H-cyclopentano[B]pyridin-5-yl)-2-(2-fluoro-4-pyridine)pyrimidine-4-formamide] | < 50 |
| C[C@H](NC(=O)c1cc(-c2ccc(Cl)cc2)nc(-c2cnn(C)c2)n1)c1ccnc(Cl)c1 [Compound 9, (S)-6-(4-chlorophenyl)-N-(1-(2-chloro-4-pyridine)ethyl)-2-(1-methyl-1H-pyrazol-4-yl)pyrimidine-4-formamide] | < 50 |
| Cn1cc(-c2nc(C(=O)N[C@H]3c4ccccc4C[C@H]3O)cc(-c3ccc(Cl)cc3)n2)cn1 [Compound 3, (S)-6-(4-chlorophenyl)-N-((1S, 2R)-(−)-1-yl-2-indanol)-2-(1-methyl-1H-pyrazol-4-yl)pyrimidine-4-formamide] | 50 to 200 |
| CC[C@H](NC(=O)c1cc(-c2ccc(Cl)cc2)nc(-c2cnn(C)c2)n1)c1ccc(F)cc1 [Compound 18, (S)-6-(4-chlorophenyl)-N-(1-(4-fluorophenyl)n-propyl)-2-(1-methyl-1H-pyrazol-4-yl)pyrimidine-4-formamide] | < 50 |
| Cn1cc(-c2nc(C(=O)NC3(c4ccc(Cl)cc4)CC3)cc(-c3ccc(Cl)cc3)n2)cn1 [Compound 51, (S)-6-(4-chlorophenyl)-N-(1-(4-chlorophenyl)cyclopropylamine)-2-(1-methyl-1H-pyrazol-4-yl)pyrimidine-4-formamide] | < 50 |
| C[C@H](NC(=O)c1cc(-c2ccc(Cl)cc2)nc(-c2cnc(Cl)nc2)n1)c1ccnc(F)c1 [Compound 36, (S)-6-(4-chlorophenyl)-N-(1-(2-fluoro-4-pyridine)ethyl)-2-(2-chloropyrimidin-5-yl)pyrimidine-4-formamide] | > 1000 |
| C[C@H](NC(=O)c1cc(-c2ccc(Cl)cc2)nc(-c2cnn(C)c2)n1)c1ccc(F)c(Cl)c1 [Compound 31, (S)-6-(4-chlorophenyl)-N-(1-(3-chloro-4-fluorophenyl)ethyl)-2-(1-methyl-1H-pyrazol-4-yl)pyrimidine-4-formamide] | < 50 |
| Cn1cc(-c2nc(C(=O)N[C@H]3CCc4cc(F)c(F)cc43)cc(-c3ccc(Cl)cc3)n2)cn1 [Compound 20, (S)-6-(4-chlorophenyl)-N-((S)-(5,6-difluoro-2,3-dihydro)-(−)-1-yl-2-indene)-2-(1-methyl-1H-pyrazol-4-yl)pyrimidine-4-formamide] | 50 to 200 |
| C[C@H](NC(=O)c1cc(-c2ccc(Cl)cc2)nc(-c2cnn(C)c2)n1)c1ccnc(C#N)c1 [Compound 12, (S)-6-(4-chlorophenyl)-N-(1-(2-cyano-4-pyridine)ethyl)-2-(1-methyl-1H-pyrazol-4-yl)pyrimidine-4-formamide] | < 50 |
| Cn1cc(-c2nc(C(=O)Nc3n[nH]c4ccccc34)cc(-c3ccc(Cl)cc3)n2)cn1 [Compound 41, 6-(4-chlorophenyl)-N-(1H-indazol-3-yl)-2-(1-methyl-1H-pyrazol-4-yl)pyrimidine-4-formamide] | > 1000 |
| C[C@H](NC(=O)c1cc(-c2ccc(Cl)cc2)nc(-c2cnn(C)c2)n1)c1ccc2ncn(C)c2c1 [Compound 54, (S)-6-(4-chlorophenyl)-N-(1-(1-methyl-1H-benzo[d]imidazol-6-yl)ethyl)-2-(1-methyl-1H-pyrazol-4-yl)pyrimidine-4-formamide] | < 50 |
| C[C@H](NC(=O)c1cc(-c2ccc(OC(F)(F)F)cc2)nc(-c2cnn(C)c2)n1)c1ccnc(F)c1 [Compound 34, (S)-6-(4-trifluoromethoxyphenyl)-N-(1-(2-fluoro-4-pyridine)ethyl)-2-(1-methyl-1H-pyrazol-4-yl)pyrimidine-4-formamide] | < 50 |
| C[C@H](NC(=O)c1cc(-c2ccc(Cl)cc2)nc(-c2cnn(C)c2)n1)c1ccnc(C(F)(F)F)c1 [Compound 5, (S)-6-(4-chlorophenyl)-N-(1-(2-trifluoromethyl-4-pyridine)ethyl)-2-(1-methyl-1H-pyrazol-4-yl)pyrimidine-4-formamide] | < 50 |
| O=C(N[C@H]1CCc2ncccc21)c1cc(-c2ccc(OC(F)(F)F)cc2)nc(-c2cccnc2)n1 [Compound 27, (S)-6-(4-trifluoromethoxyphenyl)-N-((S)-6,7-dihydro-5H-cyclopentano[B]pyridin-5-yl)-2-(3-pyridyl)pyrimidine-4-formamide] | < 50 |
| C[C@H](NC(=O)c1cc(-c2ccc(Cl)cc2)nc(-c2ccc(C#N)cc2)n1)c1ccnc(F)c1 [Compound 60, (S)-6-(4-chlorophenyl)-N-(1-(2-fluoro-4-pyridine)ethyl)-2-(p-cyanophenyl)pyrimidine-4-formamide] | > 1000 |
| COc1ccc(-c2nc(C(=O)N[C@@H](C)c3ccnc(F)c3)cc(-c3ccc(Cl)cc3)n2)cc1 [Compound 50, (S)-6-(4-chlorophenyl)-N-(1-(2-fluoro-4-pyridine)ethyl)-2-(p-methoxyphenyl)pyrimidine-4-formamide] | > 1000 |
| C[C@H](NC(=O)c1cc(-c2ccnc(F)c2)nc(-c2cnn(C)c2)n1)c1ccnc(F)c1 [Compound 49, (S)-6-(2-fluoro-4-pyridine)-N-(1-(2-fluoro-4-pyridine)ethyl)-2-(1-methyl-1H-pyrazol-4-yl)pyrimidine-4-formamide] | > 1000 |
| C[C@H](NC(=O)c1cc(-c2ccc(Cl)cc2)nc(-c2cnn(C)c2)n1)c1cnn(C)c1 [Compound 14, (S)-6-(4-chlorophenyl)-N-(1-(1-methyl-1H-pyrazol-4-yl)ethyl)-2-(1-methyl-1H-pyrazol-4-yl)pyrimidine-4-formamide] | < 50 |
| Cn1cc(-c2nc(C(=O)NCCc3c[nH]c4ccccc34)cc(-c3ccc(Cl)cc3)n2)cn1 [Compound 6, (S)-6-(4-chlorophenyl)-N-(2-(1H-indol-3-yl)ethyl)-2-(1-methyl-1H-pyrazol-4-yl)pyrimidine-4-formamide] | > 1000 |
| C[C@H](NC(=O)c1cc(-c2ccc(C#N)cc2)nc(-c2cnn(C)c2)n1)c1ccnc(F)c1 [Compound 58, (S)-6-(4-cyanophenyl)-N-(1-(2-fluoro-4-pyridine)ethyl)-2-(1-methyl-1H-pyrazol-4-yl)pyrimidine-4-formamide] | 50 to 200 |
| C[C@H](NC(=O)c1cc(-c2ccc(Cl)cc2)nc(-c2cnn(C)c2)n1)c1cccc(F)c1 [Compound 26, (S)-6-(4-chlorophenyl)-N-(1-(3-fluorophenyl)ethyl)-2-(1-methyl-1H-pyrazol-4-yl)pyrimidine-4-formamide] | < 50 |
| Cn1cc(-c2nc(C(=O)NC3(C)CCN(C(=O)C4CC4)CC3)cc(-c3ccc(Cl)cc3)n2)cn1 [Compound 43, 6-(4-chlorophenyl)-N-((4-yl-4-methylpiperidin-1-yl)(cyclopropyl)ketone)-2-(1-methyl-1H-pyrazol-4-yl)pyrimidine-4-formamide] | < 50 |
| C[C@H](NC(=O)c1cc(-c2ccc(Cl)cc2)nc(-c2cccnc2)n1)c1ccnc(F)c1 [Compound 35, (S)-6-(4-chlorophenyl)-N-(1-(2-fluoro-4-pyridine)ethyl)-2-(3-pyridin-4-yl)pyrimidine-4-formamide] | < 50 |
| C[C@H](NC(=O)c1cc(-c2ccc(C(F)(F)F)cc2)nc(-c2cnn(C)c2)n1)c1ccc(F)c(F)c1 [Compound 32, (S)-6-(4-trifluoromethylphenyl)-N-(1-(3,4-difluorophenyl)ethyl)-2-(1-methyl-1H-pyrazol-4-yl)pyrimidine-4-formamide] | < 50 |
| COc1ccc([C@H](C)NC(=O)c2cc(-c3ccc(Cl)cc3)nc(-c3cnn(C)c3)n2)cc1Cl [Compound 29, (S)-6-(4-chlorophenyl)-N-(1-(3-chloro-4-methoxyphenyl)ethyl)-2-(1-methyl-1H-pyrazol-4-yl)pyrimidine-4-formamide] | < 50 |
| CC(=O)Nc1ccc([C@H](C)NC(=O)c2cc(-c3ccc(Cl)cc3)nc(-c3cnn(C)c3)n2)cc1F [Compound 53] | < 50 |
